Results published in patent publication US7078195B2, “Antibiotics AA-896” (Wyeth Holdings Corporation, priority 2001, dated 2006).
In brackets after ≈: the same amount, converted by molar mass.

What was measured:
Experiment in all cases: Broth dilution MIC
Format in all cases: cell-based
E. coli GC 4560 = details: 18 hours at 35° C.; for Antimicrobial Activity (MIC): Mueller-Hinton broth
Experimental: (§1) The in vitro antibacterial activity of AA-896-A1, AA-896-A2, AA-896-A3, AA-896-A4, AA-896-A5, AA-896-B1, AA-896-B2, AA-896-B3, AA-896-B4, AA-896-B5, AA-896-B6, AA-896-B7, AA-896-C1, AA-896-C2, AA-896-C3, AA-896-C4, AA-896-D1, AA896-D2 and AA-896-D3 is determined against a spectrum of Gram-positive and Gram-negative bacteria by a standard broth dilution method. Serial dilution of the compounds are made in Mueller-Hinton broth and inoculated with a bacterial suspension. The lowest concentration of compound that inhibited the growth of a bacterial strain after 18 hours of incubation at 35° C. is reported as the minimal inhibitory concentration (MIC) for that strain.

M. morganii GC 4531 = details: 18 hours at 35° C.; for Antimicrobial Activity (MIC): Mueller-Hinton broth
Experimental: as §1

E. coli GC 2203 = details: 18 hours at 35° C.; for Antimicrobial Activity (MIC): Mueller-Hinton broth
Experimental: as §1

CNS GC 4547 = details: Mueller-Hinton broth, 18 hours at 35° C.
Experimental: as §1

E. coli GC 3226 = details: 18 hours at 35° C.; for Antimicrobial Activity (MIC): Mueller-Hinton broth
Experimental: as §1

P. rettgeri GC 4530 = details: 18 hours at 35° C.; for Antimicrobial Activity (MIC): Mueller-Hinton broth
Experimental: as §1

CNS GC 4537 = details: Mueller-Hinton broth, 18 hours at 35° C.
Experimental: as §1

S. aureus GC 4536 = details: 18 hours at 35° C.; for Antimicrobial Activity (MIC): Mueller-Hinton broth
Experimental: as §1

E. coli GC 4559 = details: 18 hours at 35° C.; for Antimicrobial Activity (MIC): Mueller-Hinton broth
Experimental: as §1

E. faecalis GC 4555 = details: 18 hours at 35° C.; for Antimicrobial Activity (MIC): Mueller-Hinton broth
Experimental: as §1

S. aureus GC 2216 = details: 18 hours at 35° C.; for Antimicrobial Activity (MIC): Mueller-Hinton broth
Experimental: as §1

S. aureus GC 1131 = details: 18 hours at 35° C.; for Antimicrobial Activity (MIC): Mueller-Hinton broth
Experimental: as §1

S. marcescens GC 4077 = details: 18 hours at 35° C.; for Antimicrobial Activity (MIC): Mueller-Hinton broth
Experimental: as §1

P. aeruginosa GC 2214 = details: 18 hours at 35° C.; for Antimicrobial Activity (MIC): Mueller-Hinton broth
Experimental: as §1

E. faecalis GC 842 = details: 18 hours at 35° C.; for Antimicrobial Activity (MIC): Mueller-Hinton broth
Experimental: as §1

E. cloacae GC 3783 = details: 18 hours at 35° C.; for Antimicrobial Activity (MIC): Mueller-Hinton broth
Experimental: as §1

CNS GC 4538 = details: Mueller-Hinton broth, 18 hours at 35° C.
Experimental: as §1

E. faecalis GC 2242 = details: 18 hours at 35° C.; for Antimicrobial Activity (MIC): Mueller-Hinton broth
Experimental: as §1

K. pneumoniae GC 4534 = details: 18 hours at 35° C.; for Antimicrobial Activity (MIC): Mueller-Hinton broth
Experimental: as §1

P. aeruginosa GC 4532 = details: 18 hours at 35° C.; for Antimicrobial Activity (MIC): Mueller-Hinton broth
Experimental: as §1

[1] = read-out: Antimicrobial Activity (MIC)

| Antimicrobial Activity (MIC) (E. coli GC 4560) [µg/mL] | Antimicrobial Activity (MIC) (M. morganii GC 4531) [µg/mL] | Antimicrobial Activity (MIC) (E. coli GC 2203) [µg/mL] | Antimicrobial Activity (MIC) (CNS GC 4547) [µg/mL] | Antimicrobial Activity (MIC) (E. coli GC 3226) [µg/mL] | Antimicrobial Activity (MIC) (P. rettgeri GC 4530) [µg/mL] | Antimicrobial Activity (MIC) (CNS GC 4537) [µg/mL] | Antimicrobial Activity (MIC) (S. aureus GC 4536) [µg/mL] | Antimicrobial Activity (MIC) (E. coli GC 4559) [µg/mL] | Antimicrobial Activity (MIC) (E. faecalis GC 4555) [µg/mL] | Antimicrobial Activity (MIC) (S. aureus GC 2216) [µg/mL] | Antimicrobial Activity (MIC) (S. aureus GC 1131) [µg/mL] | Antimicrobial Activity (MIC) (S. marcescens GC 4077) [µg/mL] | Antimicrobial Activity (MIC) (P. aeruginosa GC 2214) [µg/mL] | Antimicrobial Activity (MIC) (E. faecalis GC 842) [µg/mL] | Antimicrobial Activity (MIC) (E. cloacae GC 3783) [µg/mL] | Antimicrobial Activity (MIC) (CNS GC 4538) [µg/mL] | Antimicrobial Activity (MIC) (E. faecalis GC 2242) [µg/mL] | Antimicrobial Activity (MIC) (K. pneumoniae GC 4534) [µg/mL] | Antimicrobial Activity (MIC) (P. aeruginosa GC 4532) [µg/mL] | SMILES | also measured |
| --- | --- | --- | --- | --- | --- | --- | --- | --- | --- | --- | --- | --- | --- | --- | --- | --- | --- | --- | --- | --- | --- |
| 0.5 | >32 | 16 | >32 | 32 | >32 | >32 | >32 | 32 | >32 | >32 | >32 | >32 | 16 | >32 | 8 | >32 | >32 | >32 | 32 | CC(C)C(NC(=O)NC(C(=O)NC(C(=O)NCCCNC(C(=O)O)C(OC1CC(O)C(CN)O1)C1OC(n2ccc(=O)[nH]c2=O)C(O)C1O)C(O)C(C)C)C1CCNC(=N)N1)C(=O)O [AA-896-C3, 5-O-[5-Amino-2,5-dideoxy-β-D-ribofuranosyl]-6-[[3-[2-[2-[[(1-carboxy-2-methylpropyl)-carbamoyl]amino]-2-(hexahydro-2-iminopyrimidin-4-yl)acetamido]-3-hydroxy-4-methyl-pentanamido]propyl]amino]-1,6-dideoxy-1-(3,4-dihydro-2,4-dioxopyrimidin-1(2H)-yl)-β-D-heptofuranuronic acid] |  |
|  |  |  |  |  |  |  |  |  |  |  |  |  |  |  |  |  |  |  |  | CC(C)C(NC(=O)NC(C(=O)NC(C(=O)NCCCNC(C(=O)O)C(O)C1OC(n2ccc(=O)[nH]c2=O)C(O)C1O)C(O)C(C)C)C1CCNC(=N)N1)C(=O)O [AA-896-C4, 6-[[3-[2-[2-[[(1-Carboxy-2-methylpropyl)carbamoyl]amino]-2-(hexahydro-2-iminopyrimidin-4-yl)acetamido]-3-hydroxy-4-methylpentanamido]propyl]amino]-1,6-dideoxy-1-(3,4-dihydro-2,4-dioxopyrimidin-1(2H)-yl)-β-D-heptofuranuronic acid] | MIC (E. coli GC 4560; Escherichia coli, GC4560, Mueller-Hinton broth, read-out: Antimicrobial Activity (MIC)): 4 µg/mL (≈ 4.99 µM); MIC (M. morganii GC 4531; Morganella morganii, GC4531, Mueller-Hinton broth, read-out: Antimicrobial Activity (MIC)): > 32 µg/mL; MIC (E. coli GC 2203; Escherichia coli, GC2203, Mueller-Hinton broth, read-out: Antimicrobial Activity (MIC)): > 32 µg/mL; MIC (CNS GC 4547; [1]): > 32 µg/mL; MIC (E. coli GC 3226; Escherichia coli, GC3226, Mueller-Hinton broth, read-out: Antimicrobial Activity (MIC)): > 32 µg/mL; MIC (P. rettgeri GC 4530; Providencia rettgeri, GC4530, Mueller-Hinton broth, read-out: Antimicrobial Activity (MIC)): > 32 µg/mL; MIC (CNS GC 4537; [1]): > 32 µg/mL; MIC (S. aureus GC 4536; Staphylococcus aureus, GC4536, Mueller-Hinton broth, read-out: Antimicrobial Activity (MIC)): > 32 µg/mL; MIC (E. coli GC 4559; Escherichia coli, GC4559, Mueller-Hinton broth, read-out: Antimicrobial Activity (MIC)): > 32 µg/mL; MIC (E. faecalis GC 4555; Enterococcus faecalis, GC4555, Mueller-Hinton broth, read-out: Antimicrobial Activity (MIC)): > 32 µg/mL; MIC (S. aureus GC 2216; Staphylococcus aureus, GC2216, Mueller-Hinton broth, read-out: Antimicrobial Activity (MIC)): > 32 µg/mL; MIC (S. aureus GC 1131; Staphylococcus aureus, GC1131, Mueller-Hinton broth, read-out: Antimicrobial Activity (MIC)): > 32 µg/mL; MIC (S. marcescens GC 4077; Serratia marcescens, GC4077, Mueller-Hinton broth, read-out: Antimicrobial Activity (MIC)): > 32 µg/mL; MIC (P. aeruginosa GC 2214; Pseudomonas aeruginosa, GC2214, Mueller-Hinton broth, read-out: Antimicrobial Activity (MIC)): 32 µg/mL (≈ 40 µM); MIC (E. faecalis GC 842; Enterococcus faecalis, GC842, Mueller-Hinton broth, read-out: Antimicrobial Activity (MIC)): > 32 µg/mL; MIC (E. cloacae GC 3783; Enterobacter cloacae, GC3783, Mueller-Hinton broth, read-out: Antimicrobial Activity (MIC)): > 32 µg/mL; MIC (CNS GC 4538; [1]): > 32 µg/mL; MIC (E. faecalis GC 2242; Enterococcus faecalis, GC2242, Mueller-Hinton broth, read-out: Antimicrobial Activity (MIC)): > 32 µg/mL; MIC (K. pneumoniae GC 4534; Klebsiella pneumoniae, GC4534, Mueller-Hinton broth, read-out: Antimicrobial Activity (MIC)): > 32 µg/mL; MIC (P. aeruginosa GC 4532; Pseudomonas aeruginosa, GC4532, Mueller-Hinton broth, read-out: Antimicrobial Activity (MIC)): 32 µg/mL (≈ 40 µM) |
| 1 | >32 | >32 | >32 | 32 | >32 | >32 | >32 | >32 | >32 | >32 | >32 | >32 | 32 | >32 | 32 | >32 | >32 | >32 | 32 | COC1C(OC(C(NCCCNC(=O)C(CC(C)C)NC(=O)C(NC(=O)NC(C(=O)O)C(C)C)C2CCNC(=N)N2)C(=O)O)C2OC(n3ccc(=O)[nH]c3=O)C(O)C2O)OC(CN)C1O [AA-896-D1, 5-O-[5-Amino-5-deoxy-2-O-methyl-β-D-ribofuranosyl]-6-[[3-[2-[2-[[(1-carboxy-2-methyl-propyl)carbamoyl]amino]-2-(hexahydro-2-iminopyrimidin-4-yl)acetamido]-4-methyl-pentanamido]propyl]amino]-1,6-dideoxy-1-(3,4-dihydro-2,4-dioxopyrimidin-1(2H)-yl)-β-D-heptofuranuronic acid] |  |
